{"source": "patent US20240139176A1", "about": "“METHODS OF TREATING OR PREVENTING CACHEXIA” (Toray Industries, Inc., priority 2019, published 2024)", "key": {"[1]": {"test_system": "tumor-bearing mouse model (non-small cell lung cancer model having ghrelin resistance), A549 cells planted into nude mice", "test": "Food intake and body weight in tumor-bearing mouse model (non-small cell lung cancer model having ghrelin resistance), dosing from Day 43 after A549 plantation", "type": "in vivo", "conditions": "oral daily for 28 days (Day 43 to Day 70), Compound 1 0.25 mg/kg, anamorelin hydrochloride 30 mg/kg, combined 0.25 + 30 mg/kg, Dunnett's test P<0.05; for cumulative food intake in the period of administration, compared to distilled water-treated group: FIG. 1; for body weight after 28-day administration, compared to distilled water-treated group: FIG. 2", "description": "Using tumor-bearing model animals where human alveolar basement epidermal gland cancer cells, A549 cells, were planted into nude mice, examination was performed about drug efficacy on the food intake and the body weight when Compound 1 and anamorelin hydrochloride (MedChemExpress LLC) were combined.\n(§1) Subculture of A549 cells was performed using a 10% FBS-containing RPMI1640 culture medium. In evaluation of drug efficacy, 7-week old female BALB/C slc/nu/nu mice (Japan SLC, Inc.) were purchased, and used after habituated for one week. Tumor-bearing model animals were prepared as follows. Specifically, 2.5×10^7 cells of A549 cells were planted to the right abdominal of each mouse by subdermal administration. On Day 41 from the cell plantation, the mice were divided into groups to have an equal averaged tumor volume.\nThe effects of a variety of compounds on food intake and body weight were examined as follows. Specifically, for 28 days from Day 43 to Day 70 from the cell plantation, the compounds were orally administered daily, and the food intake and the body weight were measured at the same time. For the doses of the compounds, the dose of Compound 1 was 0.25 mg/kg (9 examples), and that of anamorelin hydrochloride was 30 mg/kg (9 examples). In combined administration of Compound 1 and anamorelin hydrochloride, 0.25 mg/kg of Compound 1 and 30 mg/kg of anamorelin hydrochloride were used, where Compound 1 and anamorelin hydrochloride preliminarily dissolved in distilled water mixed for preparation (9 examples). As a control, distilled water was administered in the same manner (9 examples). The food intake was calculated by subtracting the weight of the lid of each single cage containing food on the previous day from the weight of the lid of the single cage containing food on the day of measurement.\nIn FIG. 1, the ordinate represents the cumulative food intake in the period of administration of the compounds (from the start of administration to the day next to the final day of administration). In FIG. 2, the ordinate represents the body weight on Day 29 from the start of administration of the compounds (the day next to the final day of administration) (after 28-day administration). In the abscissas of FIGS. 1 and 2, “Distilled water” represents distilled water-treated group, “Compound 1” represents Compound 1-treated group, “Anamorelin” represents anamorelin hydrochloride-treated group, and “Combined administration” represents Compound 1 and anamorelin hydrochloride-combined treatment group. In FIGS. 1 and 2, the mark “*” represents a statistical significance (*: P<0.05) compared to distilled water-treated group (Dunnett's multiple test)."}, "[2]": {"test_system": "tumor-bearing mouse model (skin cancer model), B16/F10 cells planted to mice", "test": "Food intake and body weight in tumor-bearing mouse model (skin cancer model), B16/F10 cells", "type": "in vivo", "conditions": "oral daily for 11 days (Day 5 to Day 15), Compound 1 0.05 mg/kg, anamorelin hydrochloride 30 mg/kg, combined 0.05 + 30 mg/kg; for cumulative food intake in the period of administration, compared to distilled water-treated group: Dunnett's test P<0.05, FIG. 5; for body weight after 11-day administration, compared to distilled water-treated group: FIG. 6", "description": "Using tumor-bearing model animals where mouse malignant melanoma cells, B16/F10 cells, were planted to mice, and examination performed about the drug efficacy to the food intake and the body weight when Compound 1 and anamorelin hydrochloride were combined.\nSubculture of B16/F10 cells was performed using a DMEM culture medium containing 10% FBS and penicillin-streptomycin. In evaluation of the drug efficacy, 6-weeks old female C57BL/6J mice (Charles River Laboratories, Japan, Inc.) when introduced were used after habituated for one week. The tumor-bearing model animals were prepared as follows. Specifically, 5×10^6 cells of B16/F10 cells were planted to the right abdominal of each mouse by subdermal administration. On Day 5 from the cell plantation, the mice were divided into groups to have an equal averaged tumor volume.\nThe effects of a variety of compounds on food intake and body weight were examined as follows. Specifically, for 11 days from Day 5 to Day 15 from the cell plantation, the compounds were orally administered daily, and the food intake and the body weight measured at the same time. For the doses of the compounds, the dose of Compound 1 was 0.05 mg/kg (8 examples), and that of anamorelin hydrochloride was 30 mg/kg (8 examples). In combined administration of Compound 1 and anamorelin hydrochloride, 0.05 mg/kg of Compound 1 and 30 mg/kg of anamorelin hydrochloride were used, where Compound 1 and anamorelin hydrochloride preliminarily dissolved in distilled water were mixed for preparation (8 examples). As a control, distilled water was administered in the same manner (8 examples). The food intake was calculated by subtracting the weight of the lid of each single cage containing food on the previous day from the weight of the lid of the single cage containing food on the day of measurement. Eight individuals of each group were divided into two cases, in each of which 4 individuals were raised. The food intake per one mouse was calculated by dividing the total food intake of the 2 cases by 8.\nIn FIG. 5, the ordinate represents the cumulative food intake in the period of administration of the compounds (from the start of administration to the day next to the final day of administration). In FIG. 6, the ordinate represents the body weight on Day 12 from the start of administration of the compounds (the day next to the final day of administration) (after 11-day administration). In the abscissas in FIGS. 5 and 6, “Distilled water” represents distilled water-treated group, “Compound 1” represents Compound 1-treated group, “Anamorelin” represents anamorelin hydrochloride-treated group, and “Combined administration” represents Compound 1 and anamorelin hydrochloride-combined treatment group. […]"}, "[3]": {"test_system": "tumor-bearing mouse model (non-small cell lung cancer model), A549 cells planted to nude mice", "test": "Food intake and body weight in tumor-bearing mouse model (non-small cell lung cancer model), dosing from Day 23 after A549 plantation", "type": "in vivo", "conditions": "oral daily for 28 days (Day 23 to Day 50), Compound 1 0.25 mg/kg, anamorelin hydrochloride 30 mg/kg, combined 0.25 + 30 mg/kg, Dunnett's test P<0.05; for cumulative food intake in the period of administration, compared to distilled water-treated group: FIG. 3; for body weight after 28-day administration, compared to distilled water-treated group: FIG. 4", "description": "Using tumor-bearing model animals where human alveolar basement epidermal gland cancer cells, A549 cells, were planted to nude mice, examination was performed about the drug efficacy on the food intake and body weight when Compound 1 and anamorelin hydrochloride were combined.\nas §1, with “Cancer-bearing” for “Tumor-bearing”, “22” for “41”\nThe effects of a variety of compounds on food intake and body weight were examined as follows. Specifically, for 28 days from Day 23 to Day 50 from the cell plantation, the compounds were orally administered daily, and the food intake and the body weight measured at the same time. For the doses of the compounds, the dose of Compound 1 was 0.25 mg/kg (13 examples), and the dose of anamorelin hydrochloride was 30 mg/kg (13 examples). In combined administration of Compound 1 and anamorelin hydrochloride, 0.25 mg/kg of Compound 1 and 30 mg/kg of anamorelin hydrochloride were used, where Compound 1 and anamorelin hydrochloride preliminarily dissolved in distilled water were mixed for preparation (13 examples). As a control, distilled water was administered in the same manner (13 examples). The food intake was calculated by subtracting the weight of the lid of each single cage containing food on the previous day from the weight of the lid of the single cage containing food on the day of measurement.\nIn FIG. 3, the ordinate represents the cumulative food intake in the period of administration of the compounds (from the start of administration to the day next to the final day of administration). In FIG. 4, the ordinate represents the body weight on Day 29 from the start of administration of the compounds (the day next to the final day of administration) (after 28-day administration). In the abscissas of FIGS. 3 and 4, “Distilled water” represents distilled water-treated group, “Compound 1” represents Compound 1-treated group, “Anamorelin” represents anamorelin hydrochloride-treated group, and “Combined administration” represents Compound 1 and anamorelin hydrochloride combined-treatment group. In FIGS. 3 and 4, the mark “*” represents a statistical significance (*: P<0.05) compared to distilled water-treated group (Dunnett's multiple test)."}, "[4]": {"conditions": "third phase clinical trials; cited from earlier work"}}, "note": "Where a name gives a salt, the structure may show the parent alone.", "data": [{"smiles": "CN(C(=O)/C=C/c1ccoc1)[C@@H]1CC[C@@]2(O)[C@H]3Cc4ccc(O)c5c4[C@@]2(CCN3CC2CC2)[C@H]1O5", "note": "[Compound 1, (−)-17-(cyclopropylmethyl)-3,14β-dihydroxy-4,5α-epoxy-6β-[N-methyl-trans-3-(3-furyl)acrylamide]morphinanhydrochloride]", "values": [{"measurement": "cumulative food intake in the period of administration, compared to distilled water-treated group", "setting": "[1]", "result": "any statistically significant increase of food intake was not observed"}, {"measurement": "body weight after 28-day administration, compared to distilled water-treated group", "setting": "[1]", "result": "any statistically significant increase in body weight was not observed"}, {"measurement": "cumulative food intake in the period of administration, compared to distilled water-treated group", "setting": "[2]", "result": "any statistically significant increase food intake was not observed"}, {"measurement": "body weight after 11-day administration, compared to distilled water-treated group", "setting": "[2]", "result": "a tendency of increasing body weight was not exhibited"}, {"measurement": "cumulative food intake in the period of administration, compared to distilled water-treated group", "setting": "[3]", "result": "statistically significant increase of food intake was exhibited"}, {"measurement": "body weight after 28-day administration, compared to distilled water-treated group", "setting": "[3]", "result": "statistically significant increase of body weight was exhibited"}]}, {"smiles": "CN(C)N(C)C(=O)[C@@]1(Cc2ccccc2)CCCN(C(=O)[C@@H](Cc2c[nH]c3ccccc23)NC(=O)C(C)(C)N)C1", "note": "[anamorelin hydrochloride, 2-amino-N-[(1R)-2-[(3R)-3-benzyl-3-(N,N′,N′-trimethylhydrazinocarbonyl)piperidin-1-yl-]-1-(1H-indol-3-ylmethyl)-2-oxoethyl]-2-methylpropionamide]", "values": [{"measurement": "cumulative food intake in the period of administration, compared to distilled water-treated group", "setting": "[1]", "result": "any statistically significant increase of food intake was not observed"}, {"measurement": "body weight after 28-day administration, compared to distilled water-treated group", "setting": "[1]", "result": "any statistically significant increase in body weight was not observed"}, {"measurement": "cumulative food intake in the period of administration, compared to distilled water-treated group", "setting": "[2]", "result": "any statistically significant increase food intake was not observed"}, {"measurement": "body weight after 11-day administration, compared to distilled water-treated group", "setting": "[2]", "result": "a tendency of increasing body weight was not exhibited"}, {"measurement": "cumulative food intake in the period of administration, compared to distilled water-treated group", "setting": "[3]", "result": "a tendency of increasing food intake was observed"}, {"measurement": "body weight after 28-day administration, compared to distilled water-treated group", "setting": "[3]", "result": "statistically significant increase of body weight was exhibited"}, {"measurement": "lean body mass", "setting": "[4]", "result": "significantly increases lean body mass"}]}]}
